In patent US6403573B1, “Compounds of azetidine and pyrrolidin” (Akzo Nobel N.V., priority 2000, dated 2002):

Experiments:
[1] = DRL-72 test; type: in vivo, rats
From the text: This test, carried out according to the protocol of Andrews et al [“Effects of imipramine and mirtazapine on operant performance in rats”—Drug Development Research 32: 58-66 (1994)], gives an indication of potential antidepressant-like activity.

[2] = biological target: T1, 5HT2C receptors (Rattus norvegicus, UniProt P08909); experiment: Penile erection test; type: in vivo, rats
T1 construct: from tissue; host or cells: living rats (in vivo)
T1 sequence (P08909 33-460): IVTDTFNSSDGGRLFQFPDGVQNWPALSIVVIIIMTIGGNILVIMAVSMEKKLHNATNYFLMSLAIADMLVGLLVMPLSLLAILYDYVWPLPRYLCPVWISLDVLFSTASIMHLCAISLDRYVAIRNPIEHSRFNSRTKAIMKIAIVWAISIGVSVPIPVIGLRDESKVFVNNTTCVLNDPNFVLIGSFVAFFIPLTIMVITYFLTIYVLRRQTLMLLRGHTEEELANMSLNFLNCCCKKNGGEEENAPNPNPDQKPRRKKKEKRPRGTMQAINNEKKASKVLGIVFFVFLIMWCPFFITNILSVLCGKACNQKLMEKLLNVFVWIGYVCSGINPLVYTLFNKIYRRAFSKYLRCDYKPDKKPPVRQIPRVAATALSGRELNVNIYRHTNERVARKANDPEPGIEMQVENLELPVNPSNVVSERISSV
From the text: This test, carried out according to the protocol of Berendsen et al [“Involvement of 5-HT1C receptors in drug-induced penile erections in rats”—Psychopharmacology 101: 57-61(1990)] enables the potential in vivo activity at 5HT2C receptors to be assessed.

[3] = biological target: T2, 5-HT2C receptors (Homo sapiens, UniProt P28335); experiment: Binding test, displacement of [3H]-mesulergine, cloned human receptors expressed in 3T3 cells
T2 construct: expressed in transfected cells; host or cells: 3T3 cells
T2 sequence (P28335 33-458): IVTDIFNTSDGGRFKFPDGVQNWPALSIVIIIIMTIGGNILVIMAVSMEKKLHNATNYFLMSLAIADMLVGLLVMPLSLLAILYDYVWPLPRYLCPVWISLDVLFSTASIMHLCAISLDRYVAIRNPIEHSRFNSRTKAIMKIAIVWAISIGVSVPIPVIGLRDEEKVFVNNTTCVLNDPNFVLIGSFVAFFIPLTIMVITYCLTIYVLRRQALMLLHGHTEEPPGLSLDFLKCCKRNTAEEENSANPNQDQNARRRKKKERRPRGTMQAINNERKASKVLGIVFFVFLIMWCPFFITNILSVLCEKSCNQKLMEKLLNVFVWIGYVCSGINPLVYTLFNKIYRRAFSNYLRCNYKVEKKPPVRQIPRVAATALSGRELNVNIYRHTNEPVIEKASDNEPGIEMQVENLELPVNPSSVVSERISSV
Method: The tests are carried out using cloned human receptors expressed in 3T3 cells according to the protocols described in Stam et at “Genomic organization, coding sequence and functional expression of human 5-HT2 and 5-HT1A receptor genes”—European Journal of Pharmacology—Molecular Pharmacology Section 227: 153-162 (1993) and Stam et al “Genomic organisation and functional expression of the gene encoding the human serotonin 5-HT2C receptor”—European Journal of Pharmacology—Molecular Pharmacology Section 269: 339-348 (1994).

COc1ccc2c(c1O[C@@H]1CCNC1)CCC2.Cl
melting point: 174 °C

Cl.c1cc2c(c(OC3CNC3)c1)CCC2
melting point: 65 °C

Cc1ccc2ccccc2c1OC1CNC1.Cl
melting point: 171 °C

Cl.c1ccc2c(OC3CNC3)cccc2c1
melting point: 292 °C

COc1ccc(OC2CNC2)c2ccccc12.Cl
melting point: 198 °C

Cl.c1cc2c(c(OC3CNC3)c1)CCCC2
melting point: 187 °C

COc1ccc2c(c1OC1CNC1)CCCC2.Cl
melting point: 164 °C

Cl.c1ccc2cc(OC3CNC3)ccc2c1
melting point: 168 °C

Cl.c1cc2c(c(OC3CNC3)c1)NCCC2
melting point: > 250 °C

Cl.Clc1ccc2c(c1OC1CNC1)CCC2
melting point: 188 °C

Cl.Clc1cc(Cl)c2ccccc2c1OC1CNC1
melting point: 187 °C

Cc1ccc(OC2CNC2)c2ccccc12.Cl
melting point: 180 °C

CC1CCc2c(OC3CNC3)cc(F)cc21.Cl (centres unmarked)
melting point: 170 °C

Cl.c1cc(OC2CNC2)c2ccsc2c1
melting point: 203 °C

Cl.Cl.c1cc(OC2CNC2)c2ccncc2c1
melting point: 198 °C

Cl.c1ccc2c(SC3CNC3)cccc2c1
melting point: 159 °C

COCc1ccc2ccccc2c1OC1CNC1.Cl
melting point: 127 °C

COc1ccc2c(c1OC1CCNC1)CCC2.Cl (racemic) [Compound 10b, (rac)-3-[(2,3-Dihydro-5-methoxy-1H-inden-4-yl)oxy] pyrrolidine hydrochloride]
Increase in pellets earned in DRL-72 (MED) [1]: 10 mg/kg | melting point: 154 °C | Erection of the penis (MED) [2]: 1 mg/kg

Cl.c1ccc2c(OC3CCNC3)cccc2c1 (racemic) [Compound 10c, (rac)-3-[(1-Naphtalenyl)oxy]pyrrolidine hydrochloride]
selective effect on 5-HT2C receptors in the central nervous system [3]: selective effect on 5-HT2C receptors

COc1ccc2c(c1OC1CNC1)CCC2.Cl [Compound 5d, 3-[(2,3-Dihydro-5-methoxy-1H-inden-4-yl)oxy]-azetidine hydrochloride]
Increase in pellets earned in DRL-72 (MED) [1]: 10 mg/kg | melting point: 166 °C | Erection of the penis (MED) [2]: 1 mg/kg

COc1ccc2c(c1O[C@H]1CCNC1)CCC2.Cl [Compound 9a, (S)-(+)-3-[(2,3-Dihydro-5-methoxy-1H-inden-4-yl)oxy]-pyrrolidine Hydrochloride]
Increase in pellets earned in DRL-72 (MED) [1]: 3 mg/kg | melting point: 176 °C | Erection of the penis (MED) [2]: 0.46 mg/kg

Cl.c1cc2c(c(OC3CCNC3)c1)CCCC2 (centres unmarked) [Compound 9b, 3-[(5,6,7,8-Tetrahydro-1-naphthalenyl)oxy]-pyrrolidine hydrochloride]
melting point: 207 °C | selective effect on 5-HT2C receptors in the central nervous system [3]: selective effect on 5-HT2C receptors
